“And” between values parts separate entries of the source, which are not always exact repeats. Identical values can stand only once. Inconclusive results and toxic doses are left out.
System: L1210 leukemia ip in BDF1 mice, survival T/C
Test: NCI In Vivo Anticancer Drug Screen. Data for tumor model L1210 Leukemia (intraperitoneal) in B6D2F1 (BDF1) mice
Settings: endpoint: mean survival time, higher = longer survival
Method in brief: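 Tumor was transplanted into mice, which were then dosed with test compound or vehicle alone. Survival was recorded for each group, and the treated figure was expressed relative to the control figure.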

[1] = dose: 100.0 mg/kg/injection, schedule: Q04DX003 (ip), vehicle: Klucel (hydroxypropylcellulose) (HPC)
[2] = dose: 200.0 mg/kg/injection, schedule: Q04DX003 (ip), vehicle: Klucel (hydroxypropylcellulose) (HPC)
[3] = dose: 400.0 mg/kg/injection, schedule: Q04DX003 (ip), vehicle: Klucel (hydroxypropylcellulose) (HPC)
[4] = dose: 100.0 mg/kg/injection, schedule: Q01DX001 (ip), vehicle: saline
[5] = dose: 25.0 mg/kg/injection, schedule: Q04DX003 (ip), vehicle: saline
[6] = dose: 50.0 mg/kg/injection, schedule: Q04DX003 (ip), vehicle: saline
[7] = dose: 100.0 mg/kg/injection, schedule: Q04DX003 (ip), vehicle: saline
[8] = dose: 100.0 mg/kg/injection, schedule: Q04DX003 (ip), vehicle: saline with Tween-80
[9] = dose: 200.0 mg/kg/injection, schedule: Q04DX003 (ip), vehicle: saline with Tween-80
[10] = dose: 100.0 mg/kg/injection, schedule: Q01DX001 (ip), vehicle: carboxymethylcellulose (CMC)
[11] = dose: 200.0 mg/kg/injection, schedule: Q01DX001 (ip), vehicle: carboxymethylcellulose (CMC)
[12] = dose: 400.0 mg/kg/injection, schedule: Q01DX001 (ip), vehicle: carboxymethylcellulose (CMC)
[13] = dose: 100.0 mg/kg/injection, schedule: Q01DX009 (ip), vehicle: saline with Tween-80
[14] = dose: 200.0 mg/kg/injection, schedule: Q01DX009 (ip), vehicle: saline with Tween-80
[15] = dose: 400.0 mg/kg/injection, schedule: Q01DX009 (ip), vehicle: saline with Tween-80

C=C/C=N/Nc1ccc([N+](=O)[O-])cc1
T/C (dose: 100.0 mg/kg/injection, schedule: Q04DX002 (ip), vehicle: Klucel (hydroxypropylcellulose) (HPC)): 98 % of control
T/C (dose: 200.0 mg/kg/injection, schedule: Q04DX002 (ip), vehicle: Klucel (hydroxypropylcellulose) (HPC)): 92 % of control
T/C (dose: 400.0 mg/kg/injection, schedule: Q04DX002 (ip), vehicle: Klucel (hydroxypropylcellulose) (HPC)): 95 % of control

CCCCCCC(/C=N\Nc1nnc(N/N=C\C(=C\c2ccccc2)CCCCCC)c2ccccc12)=C/c1ccccc1
T/C (dose: 50.0 mg/kg/injection, schedule: Q01DX001 (ip), vehicle: other): 109 % of control
T/C (dose: 100.0 mg/kg/injection, schedule: Q01DX001 (ip), vehicle: other): 103 % of control
T/C (dose: 200.0 mg/kg/injection, schedule: Q01DX001 (ip), vehicle: other): 111 % of control
T/C (dose: 400.0 mg/kg/injection, schedule: Q01DX001 (ip), vehicle: other): 105 % of control

CCOC(=O)C(C)NCc1ccccc1 (stereo not given)
T/C (dose: 100.0 mg/kg/injection, schedule: Q01DX009 (ip), vehicle: Klucel (hydroxypropylcellulose) (HPC)): 94 % of control
T/C [1]: 98 % of control
T/C (dose: 200.0 mg/kg/injection, schedule: Q01DX009 (ip), vehicle: Klucel (hydroxypropylcellulose) (HPC)): 111 % of control
T/C [2]: 93 % of control
T/C (dose: 400.0 mg/kg/injection, schedule: Q01DX009 (ip), vehicle: Klucel (hydroxypropylcellulose) (HPC)): 103 % of control
T/C [3]: 96 % of control

c1ccc2c(c1)ncc1cccn12
T/C [4]: 103 % of control
T/C (dose: 200.0 mg/kg/injection, schedule: Q01DX001 (ip), vehicle: saline): 103 % of control
T/C (dose: 400.0 mg/kg/injection, schedule: Q01DX001 (ip), vehicle: saline): 103 % of control

COc1cccc2c1[nH]c1cc3ccncc3cc12
T/C (dose: 25.0 mg/kg/injection, schedule: Q01DX001 (ip), vehicle: saline): 107 % of control
T/C (dose: 50.0 mg/kg/injection, schedule: Q01DX001 (ip), vehicle: saline): 112 % of control
T/C [4]: 98 % of control and 102 % of control
T/C [1]: 95 % of control
T/C [2]: 95 % of control

CCN1Cc2ccc(O)cc2C1
T/C (dose: 25.0 mg/kg/injection, schedule: Q01DX009 (ip), vehicle: saline): 103 % of control
T/C [5]: 107 % of control
T/C (dose: 50.0 mg/kg/injection, schedule: Q01DX009 (ip), vehicle: saline): 95 % of control
T/C [6]: 107 % of control
T/C (dose: 100.0 mg/kg/injection, schedule: Q01DX009 (ip), vehicle: saline): 96 % of control and 97 % of control
T/C [7]: 100 % of control and 102 % of control

O=C(Nc1ccccc1)Nc1ccc([N+](=O)[O-])cc1[N+](=O)[O-]
T/C (dose: 100.0 mg/kg/injection, schedule: Q01DX001 (ip), vehicle: saline with Tween-80): 93 % of control
T/C [8]: 92 % of control
T/C (dose: 200.0 mg/kg/injection, schedule: Q01DX001 (ip), vehicle: saline with Tween-80): 92 % of control
T/C [9]: 93 % of control
T/C (dose: 400.0 mg/kg/injection, schedule: Q01DX001 (ip), vehicle: saline with Tween-80): 98 % of control

C/C(CCC(=O)O)=N\NC(=O)Cc1cccc2ccccc12
T/C [1]: 94 % of control
T/C [2]: 102 % of control
T/C [3]: 102 % of control

CCc1c(Nc2ccccc2Cl)[nH]c(N)nc1=S
T/C (dose: 100.0 mg/kg/injection, schedule: Q01DX Z (ip), vehicle: methylcellulose (MC)): 97 % of control
T/C (dose: 200.0 mg/kg/injection, schedule: Q01DX Z (ip), vehicle: methylcellulose (MC)): 97 % of control

Cc1cc(N(CCCl)CCCl)ccc1C=NCCCCN=Cc1ccc(N(CCCl)CCCl)cc1C
T/C (dose: 50.0 mg/kg/injection, schedule: Q01DX001 (ip), vehicle: carboxymethylcellulose (CMC)): 104 % of control
T/C [10]: 106 % of control
T/C [11]: 101 % of control
T/C [12]: 101 % of control

COc1cc(NS(C)(=O)=O)ccc1Nc1c2ccccc2nc2c(C)cccc12
T/C (dose: 0.62 mg/kg/injection, schedule: Q01DX009 (ip), vehicle: saline): 100 % of control
T/C (dose: 1.25 mg/kg/injection, schedule: Q01DX009 (ip), vehicle: Klucel (hydroxypropylcellulose) (HPC)): 124 % of control
T/C (dose: 1.25 mg/kg/injection, schedule: Q01DX009 (ip), vehicle: saline): 111 % of control
T/C (dose: 2.5 mg/kg/injection, schedule: Q01DX009 (ip), vehicle: saline): 160 % of control
T/C (dose: 2.5 mg/kg/injection, schedule: Q01DX009 (sc), vehicle: saline): 116 % of control
T/C (dose: 2.5 mg/kg/injection, schedule: Q04DX003 (ip), vehicle: saline): 121 % of control
T/C (dose: 5.0 mg/kg/injection, schedule: Q01DX009 (ip), vehicle: Klucel (hydroxypropylcellulose) (HPC)): 118 % of control
T/C (dose: 5.0 mg/kg/injection, schedule: Q01DX009 (ip), vehicle: saline): 163 % of control
T/C (dose: 10.0 mg/kg/injection, schedule: Q01DX009 (ip), vehicle: Klucel (hydroxypropylcellulose) (HPC)): 103 % of control
T/C (dose: 10.0 mg/kg/injection, schedule: Q01DX009 (sc), vehicle: saline): 112 % of control
T/C (dose: 10.0 mg/kg/injection, schedule: Q04DX003 (ip), vehicle: saline): 159 % of control and 164 % of control
T/C (dose: 20.0 mg/kg/injection, schedule: Q04DX003 (ip), vehicle: saline): 213 % of control and 234 % of control

C=CCNC(=S)Nc1ncn[nH]1
T/C (dose: 75.0 mg/kg/injection, schedule: Q01DX001 (ip), vehicle: carboxymethylcellulose (CMC)): 103 % of control
T/C (dose: 150.0 mg/kg/injection, schedule: Q01DX001 (ip), vehicle: carboxymethylcellulose (CMC)): 104 % of control
T/C (dose: 300.0 mg/kg/injection, schedule: Q01DX001 (ip), vehicle: carboxymethylcellulose (CMC)): 90 % of control

O=C1N(Cc2ccccc2)C(=O)C(Cc2ccccc2)(Cc2ccccc2)C(=O)N1Cc1ccccc1
T/C [10]: 101 % of control
T/C [11]: 97 % of control
T/C [12]: 95 % of control

OC1C2CCC(CC2)C1O (stereo not given)
T/C (dose: 4.5 mg/kg/injection, schedule: Q01DX009 (ip), vehicle: saline with Tween-80): 92 % of control
T/C (dose: 4.5 mg/kg/injection, schedule: Q04DX003 (ip), vehicle: other): 108 % of control
T/C (dose: 9.0 mg/kg/injection, schedule: Q01DX009 (ip), vehicle: saline with Tween-80): 92 % of control
T/C (dose: 9.0 mg/kg/injection, schedule: Q04DX003 (ip), vehicle: other): 101 % of control
T/C (dose: 9.75 mg/kg/injection, schedule: Q01DX001 (ip), vehicle: other): 104 % of control
T/C (dose: 18.0 mg/kg/injection, schedule: Q01DX009 (ip), vehicle: saline with Tween-80): 86 % of control
T/C (dose: 18.0 mg/kg/injection, schedule: Q04DX003 (ip), vehicle: other): 106 % of control
T/C (dose: 18.5 mg/kg/injection, schedule: Q01DX001 (ip), vehicle: other): 107 % of control

CCSC(=O)N1c2ccc(OC)cc2C=CC1C#N (stereo not given)
T/C [13]: 119 % of control
T/C [8]: 101 % of control
T/C [14]: 124 % of control
T/C [9]: 97 % of control
T/C [15]: 119 % of control
T/C (dose: 400.0 mg/kg/injection, schedule: Q04DX003 (ip), vehicle: saline with Tween-80): 111 % of control

O=C(COc1ccc(Cl)c(Cl)c1)NCc1ccc[n+](Cc2ccc(S(=O)(=O)F)c(Cl)c2)c1
T/C [5]: 106 % of control
T/C [6]: 106 % of control
T/C [7]: 92 % of control and 98 % of control

O=C(COc1ccc(Cl)cc1Cl)Nc1ccccc1F
T/C (dose: 50.0 mg/kg/injection, schedule: Q01DX009 (ip), vehicle: saline with Tween-80): 92 % of control
T/C [13]: 98 % of control and 87 % of control
T/C [14]: 89 % of control
T/C [15]: 95 % of control

Source: PubChem BioAssay AID248 (DTP/NCI, 2004)
